The values that follow come from PubChem BioAssay AID1884 (NMMLSC, 2009).

For orientation: EC50 means the midpoint of the concentration-response curve. Usually Ki stands for the equilibrium dissociation constant of an inhibitor or competing ligand from its target. A high value points to lower affinity.

Active and inactive are the calls of the source. The rule behind the calls is not given here. Where only a bound is given, the exact number is not on record here.

One assay deals with Regulator of G-protein signaling 19 (Homo sapiens) (UniProt P49795). The assay can be described thus: RGS19-Gαo interaction regulators, potency – biochemical, multiplexed bead flow cytometry, dose response (AID 1884). The note with it: bead-based flow cytometry RGS19-Galphao binding. (In general: A flow cytometer gives signals particle by particle.)
Sequence of Regulator of G-protein signaling 19 (Homo sapiens) (P49795 whole entry, looked up): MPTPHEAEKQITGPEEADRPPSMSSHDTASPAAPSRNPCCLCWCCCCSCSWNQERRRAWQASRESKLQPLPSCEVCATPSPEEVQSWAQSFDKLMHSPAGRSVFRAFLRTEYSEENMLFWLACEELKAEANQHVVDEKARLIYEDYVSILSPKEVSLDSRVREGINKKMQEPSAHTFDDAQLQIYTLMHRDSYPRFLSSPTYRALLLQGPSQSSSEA
For `CCOC(=O)/C(C(=O)Nc1ccccc1Cl)=C1/NC(C)(C)Cc2ccccc21`, the EC50 is > 30 µM (inactive). `CCOC(=O)C1=C(C)NC(C)=C(C(=O)OCCNC(=O)c2cccnc2)C1c1cccc([N+](=O)[O-])c1` (configuration not stated): the EC50 is > 30 µM (inactive). Same read-out and setting: then `CC(C)Sc1nc2ccc(N3C(=O)C4CCCCC4C3=O)cc2s1` (configuration not stated), with > 30 µM (inactive); and `CN(C)[C@@H]1C(=O)C(C(=O)NCN2CCCC2)=C(O)[C@@]2(O)C(=O)C3=C(O)c4c(O)cccc4[C@@](C)(O)C3CC12` (some centres not stated), with 7.53 µM; and `NS(=O)(=O)c1ccc(N/N=C/c2ccc(O)c(O)c2O)c([N+](=O)[O-])c1`, with 0.68 µM. For the molecule `O=C1CCCC2=C1C(c1cccs1)n1ncnc1N2` (configuration not stated), the EC50 was > 30 µM (inactive). On the same count and under the same terms, then `COc1ccc(Br)cc1/C=N/Nc1cccc(C(=O)O)c1`, with > 30 µM (inactive); and `CCOC(=O)N=Nc1c(O)n(C)c2ccccc12`, with > 30 µM (inactive). The same measure, in the same setting: in the case of `O=c1[nH]c(=S)n(Cc2ccco2)c(O)c1C=NCc1cccs1` it was > 30 µM (inactive).

The same assay, now with this note: bead-based flow cytometry RGS19-Galphao binding; measured here: Ki for RGS19-Galphao.
In the case of `O=C(O)C[C@@H]1C(=O)O[C@@H]2C(COC(=O)c3cc(O)c(O)c(O)c3)O[C@@H](OC(=O)c3cc(O)c(O)c(O)c3)[C@@H](OC(=O)c3cc(O)c(O)c4c3[C@H]1[C@H](O)C(=O)O4)[C@H]2OC(=O)c1cc(O)c(O)c(O)c1` (some centres not stated), the Ki worked out at 5370 nM.

In turn, `CCc1c(C(=O)Nc2ccccc2)c(C)[nH]c(=S)c1C#N` yielded a Ki of 10500 nM.

With `O=C(OCC1O[C@@H](OC(=O)c2cc(O)c(O)c(O)c2)[C@@H](OC(=O)c2cc(O)c(O)c(O)c2)[C@@H](OC(=O)c2cc(O)c(O)c(O)c2)[C@@H]1OC(=O)c1cc(O)c(O)c(O)c1)c1cc(O)c(O)c(O)c1` (some centres not stated), the Ki amounted to 4120 nM. As for `O=c1c2ccccc2sn1-c1ccc(S(=O)(=O)N2CCCC2)cc1`, the inhibition constant (Ki) is 950 nM.

Turning to `O=C(O[C@@H]1OC2COC(=O)c3cc(O)c(O)c(O)c3-c3c(cc(O)c(O)c3O)C(=O)O[C@@H]([C@H]1O)[C@@H]2O)c1cc(O)c(O)c(O)c1`, the Ki amounted to 2980 nM. Turning to `CCOC(=O)c1sc(NC(=O)CSc2nnc(Cc3ccccc3)o2)c(C#N)c1C`, the inhibition constant Ki came to 1330 nM. On the same count and under the same terms, in the case of `CCOC(=O)C1CCCN(C(=O)Cn2sc3nc(C)cc(C)c3c2=O)C1` (configuration not stated) it was 2100 nM; in that of `Cc1[nH]n(-c2ccccc2)c(=S)c1C=NCCCN=Cc1c(C)[nH]n(-c2ccccc2)c1=S`, 2630 nM. The same measure, in the same setting: in the case of `CN=c1scc(C)n1/N=C/c1ccc(O)c(O)c1O` it was 2640 nM; in that of `CC(NC(=O)c1sc2cc([N+](=O)[O-])ccc2c1Cl)C(C)(C)C` (configuration not stated), 960 nM. The same measure, in the same setting: in the case of `CN(C)c1ncc(C2=C(Cl)C(=O)C(N3CCCC3)=C(Cl)C2=O)s1` it was 790 nM. In the case of `C/C(=N/NC(=O)c1cc(O)c(O)c(O)c1)c1ccc([N+](=O)[O-])cc1`, the Ki stood at 18700 nM. With `CCC(=O)NC1=C(Cl)C(=O)C(NC(=O)CC)=C(Cl)C1=O`, the inhibition constant (Ki) was 760 nM. Same read-out and setting: then `CN(C)[C@@H]1C(=O)C(C(=O)NCN2CCCC2)=C(O)[C@@]2(O)C(=O)C3=C(O)c4c(O)cccc4[C@@](C)(O)C3CC12` (some centres not stated), with 7070 nM; and `CCN=c1scc(C)n1/N=C/c1ccc(O)c(O)c1O`, with 4330 nM.

`COc1ccc(OC)c(CCNC(=O)Cn2sc3nc(C)cc(C)c3c2=O)c1` registered a Ki of 1140 nM. On the same count and under the same terms, then `CC(=O)N1CC[n+]2c(-c3ccc([N+](=O)[O-])cc3)csc21`, with 7170 nM. Molecule `O=C(NCCCN1CCOCC1)c1sc2cc([N+](=O)[O-])ccc2c1Cl` yielded a Ki of 2050 nM. Same read-out and setting: in the case of `CC(=O)OCCCNc1cc(Sc2nc3ccccc3s2)c2nonc2c1[N+](=O)[O-]` it was 920 nM; in that of `O=c1c2ccccc2sn1-c1ccccc1`, 300 nM; in that of `NS(=O)(=O)c1ccc(N/N=C/c2ccc(O)c(O)c2O)c([N+](=O)[O-])c1`, 630 nM.

`O=c1c2ccccc2sn1-c1cc(S(=O)(=O)N2CCOCC2)ccc1N1CCCC1` registered a Ki of 440 nM.

For the molecule `COc1ccccc1-n1c(-c2cc(-c3ccco3)[nH]n2)n[nH]c1=S`, the inhibitory constant (Ki) was found to be 13200 nM.

`CN(C)S(=O)(=O)c1cccc(-n2sc3ccccc3c2=O)c1`: the Ki was 150 nM.

Turning to `O=C1CCC(=O)N(O)CCCCCNC(=O)CCC(=O)N(O)CCCCCNC(=O)CCC(=O)N(O)CCCCCN1`, the Ki came out at 1930 nM. Still for that read-out and setting: in the case of `Cc1cc(C)c2c(=O)n(CC(=O)Nc3cccc(F)c3)sc2n1` it was 1160 nM.

Turning to `Cc1ccccc1-n1sc2cc(F)ccc2c1=O`, the Ki was 430 nM.

`Cc1cc(Cl)ccc1N=c1ssnc1Cl` returned a Ki of 4130 nM.

The molecule `O=[N+]([O-])c1ccc(Sc2cccc[n+]2[O-])c2nonc12` registered an inhibition constant (Ki) of 820 nM.

`O=C(Cc1csc(N2CCOCC2)n1)N/N=C/c1ccc(O)c(O)c1O` came in with a Ki of 4600 nM. The same measure, in the same setting: then `CCCNC(=O)Cn1sc2nc(C)cc(C)c2c1=O`, with 930 nM. The same measure, in the same setting: in the case of `Cc1cccc(N2CCN(C(=O)Cn3sc4nc(C)cc(C)c4c3=O)CC2C)c1` (configuration not stated) it was 1270 nM; in that of `O=C(COc1ccccc1C(=O)N/N=C\c1ccc(O)c(O)c1)N/N=C/c1ccc(O)c(O)c1`, 3980 nM. Molecule `CCN(CC)S(=O)(=O)c1cccc(-c2n[nH]c(=S)n2/N=C/c2ccc(C(=O)OC)cc2)c1` displayed a Ki of 5820 nM. For `Cc1[nH]n(-c2ccccc2)c(=S)c1C=Nc1cccc([N+](=O)[O-])c1`, the Ki was determined as 1590 nM. The molecule `COCCCNC(=O)c1ccc2c3c(onc13)-c1ccccc1C2=O` returned a Ki of 3630 nM.

On to `O=C1C(Cl)=C(N2CCCCC2)C(=O)C(Cl)=C1c1cnc(N2CCCCC2)s1`, for which the inhibitory constant (Ki) worked out at 630 nM. `CC1(C)OC(=O)C(=Cc2ccc(-c3ccc(S(N)(=O)=O)cc3)o2)C(=O)O1`: the Ki is 2870 nM. On the same count and under the same terms, in the case of `CCCCn1c(-c2csc(C(C)C)c2)n[nH]c1=S` it was 10700 nM; in that of `Cc1cc(C)c2c(=O)n(CC(=O)Nc3ccc(Cl)cc3)sc2n1`, 1450 nM; in that of `CCN1/C(=C/C(C)=C/c2sc3ccccc3[n+]2CC)Sc2ccccc21`, 5740 nM.

For the molecule `CCOc1ccccc1-c1c2cc(O)c(=O)cc-2oc2cc(O)c(O)cc12`, the inhibition constant (Ki) was 930 nM. With `CN1CCN(C2=C(Cl)C(=O)C(c3cnc(N4CCCCC4)s3)=C(Cl)C2=O)CC1`, the Ki is 10 nM.

`COC(=O)c1c(-c2ccc(C(C)(C)C)cc2)csc1NC(=O)C1C2CCC(O2)C1C(=O)O` (configuration not stated) yielded an inhibitory constant (Ki) of 7550 nM. `O=c1c2ccccc2sn1-c1cc(S(=O)(=O)N2CCOCC2)ccc1N1CCOCC1` displayed a Ki of 110 nM. `Cc1ccc(NC(=O)Cn2sc3nc(C)cc(C)c3c2=O)c(Cl)c1`: the inhibition constant (Ki) was determined as 470 nM. The same measure, in the same setting: in the case of `COC(=O)CCC(=O)Nc1sc(C)c(C)c1C(N)=O` it was 4090 nM.

`Cc1ccc(-n2sc3ccccc3c2=O)cc1S(=O)(=O)N1CCCCC1` came in with a Ki of 570 nM. In the case of `CCN(CC)S(=O)(=O)c1cccc(C(=O)N/N=C/c2ccc(O)c(O)c2O)c1`, the inhibition constant Ki came out at 2030 nM. Still for that read-out and setting: in the case of `NS(=O)(=O)c1ccc(CNC(=O)/C=C/c2ccco2)cc1` it was 10600 nM. For `CC(=O)N(O)CCCCCNC(=O)CCC(=O)N(O)CCCCCNC(=O)CCC(=O)N(O)CCCCCN`, the inhibition constant (Ki) amounted to 3840 nM. Same read-out and setting: then `COc1ccc(C2=CC(=O)C=CC2=O)cc1`, with 1840 nM; and `CCC(=O)NC(c1ccc(C)cc1)c1cc([N+](=O)[O-])c2cccnc2c1O` (configuration not stated), with 2070 nM.
